# Source: PubChem BioAssay (NCI)
#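 Five concentrations, 48 hours, 96-well plates. Abbreviation: GI50, concentration required for 50% inhibition of growth. At the TGI there is no net growth.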
# Key:
# Experiment in all cases: NCI tumour cell line growth inhibition, 48 h
# SR leukemia = test system: SR leukemia
# SK-OV-3 ovarian = test system: SK-OV-3 ovarian
# RPMI-8226 leukemia = test system: RPMI-8226 leukemia
# NCI-H522 lung = test system: NCI-H522 lung
# K-562 leukemia = test system: K-562 leukemia
# SN12C renal = test system: SN12C renal
# SF-295 CNS = test system: SF-295 CNS
# SK-MEL-5 melanoma = test system: SK-MEL-5 melanoma
# IGROV1 ovarian = test system: IGROV1 ovarian
# OVCAR-5 ovarian = test system: OVCAR-5 ovarian
# OVCAR-8 ovarian = test system: OVCAR-8 ovarian
# CCRF-CEM leukemia = test system: CCRF-CEM leukemia
# OVCAR-4 ovarian = test system: OVCAR-4 ovarian
# CAKI-1 renal = test system: CAKI-1 renal
# COLO 205 colon = test system: COLO 205 colon
# SK-MEL-28 melanoma = test system: SK-MEL-28 melanoma
# KM12 colon = test system: KM12 colon
# NCI-H460 lung = test system: NCI-H460 lung
# HCT-116 colon = test system: HCT-116 colon
# UACC-62 melanoma = test system: UACC-62 melanoma
# RXF 393 renal = test system: RXF 393 renal
# MOLT-4 leukemia = test system: MOLT-4 leukemia
# LOX IMVI melanoma = test system: LOX IMVI melanoma
# U251 CNS = test system: U251 CNS
# A498 renal = test system: A498 renal
# MALME-3M melanoma = test system: MALME-3M melanoma
# DU-145 prostate = test system: DU-145 prostate
# NCI-H23 lung = test system: NCI-H23 lung
# OVCAR-3 ovarian = test system: OVCAR-3 ovarian
# M14 melanoma = test system: M14 melanoma
# HS 578T breast = test system: HS 578T breast
# NCI/ADR-RES ovarian = test system: NCI/ADR-RES ovarian
# A549 NSCLC = test system: A549 NSCLC
# ACHN renal = test system: ACHN renal
# MDA-MB-435 = test system: MDA-MB-435
# NCI-H226 lung = test system: NCI-H226 lung
# MCF7 breast = test system: MCF7 breast
# TK-10 renal = test system: TK-10 renal
# HOP-62 NSCLC = test system: HOP-62 NSCLC
# HCC-2998 colon = test system: HCC-2998 colon
# HCT-15 colon = test system: HCT-15 colon
# SNB-19 CNS = test system: SNB-19 CNS
# 786-0 renal = test system: 786-0 renal
# T-47D breast = test system: T-47D breast
# SK-MEL-2 melanoma = test system: SK-MEL-2 melanoma
# UO-31 renal = test system: UO-31 renal
# SF-268 CNS = test system: SF-268 CNS
# HOP-92 NSCLC = test system: HOP-92 NSCLC
# PC-3 prostate = test system: PC-3 prostate
# SNB-75 CNS = test system: SNB-75 CNS
# HL-60(TB) leukemia = test system: HL-60(TB) leukemia
# MDA-MB-231 breast = test system: MDA-MB-231 breast
# EKVX NSCLC = test system: EKVX NSCLC
smiles,measurement,setting,value
CCCNc1nc(-c2ccc(OC)cc2)nc2ccccc12,GI50,SR leukemia,13.8 µM
same,TGI,SR leukemia,> 100 µM
same,GI50,SK-OV-3 ovarian,18.9 µM
same,TGI,SK-OV-3 ovarian,53 µM
same,GI50,RPMI-8226 leukemia,3.96 µM
same,TGI,RPMI-8226 leukemia,22.6 µM
same,GI50,NCI-H522 lung,22.3 µM
same,TGI,NCI-H522 lung,> 100 µM
same,GI50,K-562 leukemia,> 100 µM
same,TGI,K-562 leukemia,> 100 µM
same,GI50,SN12C renal,20.2 µM
same,TGI,SN12C renal,46.1 µM
same,GI50,SF-295 CNS,15.7 µM
same,TGI,SF-295 CNS,32.2 µM
same,GI50,SK-MEL-5 melanoma,12.5 µM
same,TGI,SK-MEL-5 melanoma,27.7 µM
same,GI50,IGROV1 ovarian,24 µM
same,TGI,IGROV1 ovarian,> 100 µM
same,GI50,OVCAR-5 ovarian,16.4 µM
same,TGI,OVCAR-5 ovarian,43 µM
same,GI50,OVCAR-8 ovarian,25 µM
same,TGI,OVCAR-8 ovarian,95 µM
same,GI50,CCRF-CEM leukemia,11.1 µM
same,TGI,CCRF-CEM leukemia,68.3 µM
same,GI50,OVCAR-4 ovarian,41 µM
same,TGI,OVCAR-4 ovarian,> 100 µM
same,GI50,CAKI-1 renal,13.3 µM
same,TGI,CAKI-1 renal,27.9 µM
same,GI50,COLO 205 colon,19.9 µM
same,TGI,COLO 205 colon,> 100 µM
same,GI50,SK-MEL-28 melanoma,18.6 µM
same,TGI,SK-MEL-28 melanoma,53.6 µM
same,GI50,KM12 colon,14.6 µM
same,TGI,KM12 colon,30.8 µM
same,GI50,NCI-H460 lung,10.5 µM
same,TGI,NCI-H460 lung,44 µM
same,GI50,HCT-116 colon,6.85 µM
same,TGI,HCT-116 colon,27.7 µM
same,GI50,UACC-62 melanoma,15.4 µM
same,TGI,UACC-62 melanoma,35.5 µM
same,GI50,RXF 393 renal,15.4 µM
same,TGI,RXF 393 renal,35.5 µM
same,GI50,MOLT-4 leukemia,46.4 µM
same,TGI,MOLT-4 leukemia,> 100 µM
same,GI50,LOX IMVI melanoma,18.4 µM
same,TGI,LOX IMVI melanoma,37.5 µM
same,GI50,U251 CNS,16.7 µM
same,TGI,U251 CNS,37.8 µM
same,GI50,A498 renal,11.9 µM
same,TGI,A498 renal,25 µM
same,GI50,MALME-3M melanoma,15.1 µM
same,TGI,MALME-3M melanoma,29.3 µM
same,GI50,DU-145 prostate,14.3 µM
same,TGI,DU-145 prostate,32.2 µM
same,GI50,NCI-H23 lung,18 µM
same,TGI,NCI-H23 lung,45.9 µM
same,GI50,OVCAR-3 ovarian,11.8 µM
same,TGI,OVCAR-3 ovarian,26.9 µM
same,GI50,M14 melanoma,10.6 µM
same,TGI,M14 melanoma,24.7 µM
same,GI50,HS 578T breast,17.9 µM
same,TGI,HS 578T breast,42.9 µM
same,GI50,NCI/ADR-RES ovarian,11 µM
same,TGI,NCI/ADR-RES ovarian,36.2 µM
same,GI50,A549 NSCLC,11.1 µM
same,TGI,A549 NSCLC,49.6 µM
same,GI50,ACHN renal,15.8 µM
same,TGI,ACHN renal,33.3 µM
same,GI50,MDA-MB-435,14.5 µM
same,TGI,MDA-MB-435,29.2 µM
same,GI50,NCI-H226 lung,16.1 µM
same,TGI,NCI-H226 lung,41.9 µM
same,GI50,MCF7 breast,19.5 µM
same,TGI,MCF7 breast,> 100 µM
same,GI50,TK-10 renal,13.2 µM
same,TGI,TK-10 renal,26.7 µM
same,GI50,HOP-62 NSCLC,14.9 µM
same,TGI,HOP-62 NSCLC,31.2 µM
same,GI50,HCC-2998 colon,13.6 µM
same,TGI,HCC-2998 colon,34.4 µM
same,GI50,HCT-15 colon,14.3 µM
same,TGI,HCT-15 colon,31.9 µM
same,GI50,SNB-19 CNS,34.8 µM
same,TGI,SNB-19 CNS,> 100 µM
same,GI50,786-0 renal,13.7 µM
same,TGI,786-0 renal,33 µM
same,GI50,T-47D breast,31.4 µM
same,TGI,T-47D breast,> 100 µM
same,GI50,SK-MEL-2 melanoma,35.2 µM
same,TGI,SK-MEL-2 melanoma,> 100 µM
same,GI50,UO-31 renal,19.1 µM
same,TGI,UO-31 renal,> 100 µM
same,GI50,SF-268 CNS,16.3 µM
same,TGI,SF-268 CNS,38.8 µM
same,GI50,HOP-92 NSCLC,9.06 µM
same,TGI,HOP-92 NSCLC,29.3 µM
same,GI50,PC-3 prostate,14.9 µM
same,TGI,PC-3 prostate,46.5 µM
COc1cc2c(cc1-c1c(C)noc1C)ncc1nc(C3CCCCC3)n(C3CCC(OC(F)F)CC3)c12 (stereo unspecified),GI50,K-562 leukemia,1.75 µM
same,TGI,K-562 leukemia,> 100 µM
same,GI50,SNB-75 CNS,0.511 µM
same,TGI,SNB-75 CNS,> 100 µM
same,GI50,IGROV1 ovarian,3.94 µM
same,TGI,IGROV1 ovarian,> 100 µM
same,GI50,OVCAR-5 ovarian,3 µM
same,TGI,OVCAR-5 ovarian,> 100 µM
same,GI50,OVCAR-8 ovarian,2.74 µM
same,TGI,OVCAR-8 ovarian,> 100 µM
same,GI50,HL-60(TB) leukemia,1.26 µM
same,TGI,HL-60(TB) leukemia,3.97 µM
same,GI50,MDA-MB-231 breast,1.72 µM
same,TGI,MDA-MB-231 breast,> 100 µM
same,GI50,OVCAR-4 ovarian,2.17 µM
same,TGI,OVCAR-4 ovarian,> 100 µM
same,GI50,CAKI-1 renal,1.03 µM
same,TGI,CAKI-1 renal,> 100 µM
same,GI50,SK-MEL-28 melanoma,1.67 µM
same,TGI,SK-MEL-28 melanoma,> 100 µM
same,GI50,KM12 colon,3.43 µM
same,TGI,KM12 colon,> 100 µM
same,GI50,NCI-H460 lung,2.53 µM
same,TGI,NCI-H460 lung,> 100 µM
same,GI50,RXF 393 renal,1.33 µM
same,TGI,RXF 393 renal,3.99 µM
same,GI50,DU-145 prostate,3.52 µM
same,TGI,DU-145 prostate,> 100 µM
same,GI50,NCI-H23 lung,2.49 µM
same,TGI,NCI-H23 lung,> 100 µM
same,GI50,HS 578T breast,3.74 µM
same,TGI,HS 578T breast,> 100 µM
same,GI50,A549 NSCLC,2.89 µM
same,TGI,A549 NSCLC,> 100 µM
same,GI50,EKVX NSCLC,2.31 µM
same,TGI,EKVX NSCLC,> 100 µM
same,GI50,MDA-MB-435,2.14 µM
same,TGI,MDA-MB-435,> 100 µM
same,GI50,MCF7 breast,0.584 µM
same,TGI,MCF7 breast,> 100 µM
same,GI50,HOP-62 NSCLC,1.97 µM
same,TGI,HOP-62 NSCLC,> 100 µM
same,GI50,SF-268 CNS,5.05 µM
same,TGI,SF-268 CNS,> 100 µM
same,GI50,HOP-92 NSCLC,1.53 µM
same,TGI,HOP-92 NSCLC,4.62 µM
NC(N)=Nc1ccc(-n2nc(C(F)(F)F)cc2-c2ccc3c(ccc4ccccc43)c2)cc1,GI50,RPMI-8226 leukemia,2.16 µM
same,TGI,RPMI-8226 leukemia,5.06 µM
same,GI50,HL-60(TB) leukemia,1.09 µM
same,TGI,HL-60(TB) leukemia,2.82 µM
same,GI50,CCRF-CEM leukemia,2.05 µM
same,TGI,CCRF-CEM leukemia,5.53 µM
same,GI50,MOLT-4 leukemia,2.35 µM
same,TGI,MOLT-4 leukemia,4.92 µM
same,GI50,HS 578T breast,1.59 µM
same,TGI,HS 578T breast,4.34 µM
same,GI50,NCI/ADR-RES ovarian,3.14 µM
same,TGI,NCI/ADR-RES ovarian,15.6 µM
